Assay results reported in patent publication US11384063B2, “Modulators of estrogen receptor proteolysis and associated methods of use” (Arvinas Operations, Inc., priority 2017, dated 2022).

The molecules below were run against T1, ERα (Homo sapiens, UniProt P03372) (assay: ERE luciferase reporter gene assay in T47D-KBluc cells (target engagement)). Details: 10% FBS, 24 hours, Table 1 cereblon centric PROTACs, read-out: ER-α Luciferase IC50.
T1 sequence (P03372 1-595): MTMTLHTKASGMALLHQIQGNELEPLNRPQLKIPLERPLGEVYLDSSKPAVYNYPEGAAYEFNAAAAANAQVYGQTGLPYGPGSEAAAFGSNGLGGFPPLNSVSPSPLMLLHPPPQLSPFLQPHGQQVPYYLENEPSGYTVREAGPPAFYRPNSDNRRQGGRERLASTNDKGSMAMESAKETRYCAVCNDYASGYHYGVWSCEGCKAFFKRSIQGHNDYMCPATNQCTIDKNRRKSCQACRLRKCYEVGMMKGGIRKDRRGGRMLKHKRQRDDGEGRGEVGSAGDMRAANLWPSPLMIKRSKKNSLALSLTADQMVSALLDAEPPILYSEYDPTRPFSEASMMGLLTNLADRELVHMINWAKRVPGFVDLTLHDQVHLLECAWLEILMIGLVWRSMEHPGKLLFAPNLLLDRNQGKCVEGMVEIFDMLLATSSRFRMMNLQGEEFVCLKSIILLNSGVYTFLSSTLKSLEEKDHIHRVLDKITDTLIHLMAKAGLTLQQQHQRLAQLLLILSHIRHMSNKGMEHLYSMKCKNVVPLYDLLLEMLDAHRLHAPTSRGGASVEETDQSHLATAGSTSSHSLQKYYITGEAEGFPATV
Type: cell-based
Parameters: T47D human breast cancer cells stably transfected with estrogen responsive element/promoter/luciferase reporter gene; host or cells: T47D-KBluc cells
Experimental: Chimeric molecules were assessed for target engagement in T47D cells using the commercial kit of ERE luciferase reporter gene assay. In the assay, 10% FBS was included and estrogen level was measured to be 10 pM.
ERE Luciferase Assay for Compounds in Table 1-3.
T47D-KBluc cells (ATCC #CRL_2865, T47D human breast cancer cells stably transfected with estrogen responsive element/promoter/luciferase reporter gene) were seeded into 96-well white opaque plates in RPMI growth medium supplemented with 10% fetal bovine serum and allowed to adhere overnight in a 37° C. humidified incubator. The following day, cells were treated with PROTACs in a 12-point concentration curve (top final concentration of 300 nM with subsequent concentrations being 3-fold less with 2 pM being the lowest concentration in the assay). Each PROTAC was tested independently in two experiments on 96-well plates. After 24 hours, media was removed and lysis buffer was added to the wells. Following lysis, Bright-Glo™ Luciferase Assay Substrate (Prornega, Madison Wis.) was added and the luciferase activity was measured using a Cytation 3 plate reader (TioTek™, Winooski, Vt.). Each compound was assayed in duplicates and the activity was calculated as IC50 using GraphPad Prism software (San Diego, Calif.).

IC50 [nM] | Structure (SMILES)
0.86 | O=C1CCC(N2Cc3cc(CCCCC(=O)N4CCN(CCOc5ccc(Oc6c(-c7ccc(Br)cc7)sc7cc(O)ccc67)cc5)CC4)ccc3C2=O)C(=O)N1 (stereo not shown) [Compound 47]
8.3 | O=C1CCC(N2Cc3cc(OCCCOCCCOCCCCOc4ccc(Oc5c(-c6ccc(Br)cc6)sc6cc(O)ccc56)cc4)ccc3C2=O)C(=O)N1 (stereo not shown) [Compound 48]
17.7 | O=C1CCC(N2C(=O)c3ccc(N4CCN(CCCOc5ccc(Oc6c(-c7ccc(Br)cc7)sc7cc(O)ccc67)cc5)CC4)cc3C2=O)C(=O)N1 (stereo not shown) [Compound 49]
2.2 | O=C1CCC(N2Cc3cc(OC4CC5(CCN(CCOc6ccc(Oc7c(-c8ccc(Br)cc8)sc8cc(O)ccc78)cc6)CC5)C4)ccc3C2=O)C(=O)N1 (stereo not shown) [Compound 50]
26.2 | O=C1CCC(N2C(=O)c3ccc(N4CCN(CCCCCCOc5ccc(Oc6c(-c7ccc(Br)cc7)sc7cc(O)ccc67)cc5)CC4)cc3C2=O)C(=O)N1 (stereo not shown) [Compound 51]
0.6 | CC(COc1ccc(Oc2c(-c3ccc(Br)cc3)sc3cc(O)ccc23)cc1)N1CCN(CCCCc2ccc3c(c2)CN(C2CCC(=O)NC2=O)C3=O)CC1 (stereo not shown) [Compound 53]
12.1 | O=C1CCC(N2Cc3cc(N4CCN(CCCCCCOc5ccc(Oc6c(-c7ccc(Br)cc7)sc7cc(O)ccc67)cc5)CC4)ccc3C2=O)C(=O)N1 (stereo not shown) [Compound 54]
1.8 | O=C1CCC(N2Cc3cc(N4CCN(CCOc5ccc(Oc6c(-c7ccc(Br)cc7)sc7cc(O)ccc67)cc5)CC4)ccc3C2=O)C(=O)N1 (stereo not shown) [Compound 55]
10.6 | O=C1CCC(N2C(=O)c3ccc(N4CCN(CCOc5ccc(Oc6c(-c7ccc(Br)cc7)sc7cc(O)ccc67)cc5)CC4)cc3C2=O)C(=O)N1 (stereo not shown) [Compound 56]
6.6 | O=C1CCC(N2Cc3cc(N4CCN(CCCCOc5ccc(Oc6c(-c7ccc(Br)cc7)sc7cc(O)ccc67)cc5)CC4)ccc3C2=O)C(=O)N1 (stereo not shown) [Compound 58]
3.6 | O=C1CCC(N2Cc3cc(N4CCN(CCCOc5ccc(Oc6c(-c7ccc(Br)cc7)sc7cc(O)ccc67)cc5)CC4)ccc3C2=O)C(=O)N1 (stereo not shown) [Compound 59]
29.9 | O=C1CCC(N2C(=O)c3ccc(N4CCN(CCCCOc5ccc(Oc6c(-c7ccc(Br)cc7)sc7cc(O)ccc67)cc5)CC4)cc3C2=O)C(=O)N1 (stereo not shown) [Compound 60]
8.5 | O=C1CCC(N2C(=O)c3ccc(NCCC4CCN(CCOc5ccc(Oc6c(-c7ccc(Br)cc7)sc7cc(O)ccc67)cc5)CC4)cc3C2=O)C(=O)N1 (stereo not shown) [Compound 62]
0.82 | O=C(CC1CCN(CCOc2ccc(Oc3c(-c4ccc(Br)cc4)sc4cc(O)ccc34)cc2)CC1)NCc1ccc2c(c1)CN(C1CCC(=O)NC1=O)C2=O (stereo not shown) [Compound 63]
2.9 | O=C1CCC(N2Cc3cc(NCCCC4CCN(CCOc5ccc(Oc6c(-c7ccc(Br)cc7)sc7cc(O)ccc67)cc5)CC4)ccc3C2=O)C(=O)N1 (stereo not shown) [Compound 64]
5.8 | O=C1CCC(N2C(=O)c3ccc(OCCOCCOc4ccc(Oc5c(-c6ccc(Br)cc6)sc6cc(O)ccc56)cc4)cc3C2=O)C(=O)N1 (stereo not shown) [Compound 66]
11.4 | O=C1CCC(N2C(=O)c3ccc(NCCOCCOCCOc4ccc(Oc5c(-c6ccc(Br)cc6)sc6cc(O)ccc56)cc4)cc3C2=O)C(=O)N1 (stereo not shown) [Compound 67]
5.9 | O=C1CCC(N2C(=O)c3ccc(NCCCC4CCN(CCOc5ccc(Oc6c(-c7ccc(Br)cc7)sc7cc(O)ccc67)cc5)CC4)cc3C2=O)C(=O)N1 (stereo not shown) [Compound 68]

IC50 [nM] | Structure (SMILES)
103 | O=C1CCC(N2C(=O)c3ccc(N4CCN(CCCCCCCOc5ccc(Oc6c(-c7ccc(Br)cc7)sc7cc(O)ccc67)cc5)CC4)cc3C2=O)C(=O)N1 (stereo not shown) [Compound 69]
1.6 | O=C1CCC(N2C(=O)c3ccc(CCCOC4CCN(CCOc5ccc(Oc6c(-c7ccc(Br)cc7)sc7cc(O)ccc67)cc5)CC4)cc3C2=O)C(=O)N1 (stereo not shown) [Compound 70]
0.94 | O=C1CCC(N2Cc3cc(NCCCN4CCN(CCOc5ccc(Oc6c(-c7ccc(Br)cc7)sc7cc(O)ccc67)cc5)CC4)ccc3C2=O)C(=O)N1 (stereo not shown) [Compound 71]
3.1 | O=C1CCC(N2Cc3cc(NCCOCCOc4ccc(Oc5c(-c6ccc(Br)cc6)sc6cc(O)ccc56)cc4)ccc3C2=O)C(=O)N1 (stereo not shown) [Compound 72]
1.3 | O=C1CCC(N2Cc3cc(CCCOC4CCN(CCOc5ccc(Oc6c(-c7ccc(Br)cc7)sc7cc(O)ccc67)cc5)CC4)ccc3C2=O)C(=O)N1 (stereo not shown) [Compound 73]
6.6 | O=C1CCC(N2C(=O)c3ccc(NCCOCCOc4ccc(Oc5c(-c6ccc(Br)cc6)sc6cc(O)ccc56)cc4)cc3C2=O)C(=O)N1 (stereo not shown) [Compound 75]
17 | O=C1CCC(N2C(=O)c3ccc(OCCCOCCOc4ccc(Oc5c(-c6ccc(Br)cc6)sc6cc(O)ccc56)cc4)cc3C2=O)C(=O)N1 (stereo not shown) [Compound 76]
34.1 | O=C1CCC(N2C(=O)c3ccc(OCCCOCCCOc4ccc(Oc5c(-c6ccc(Br)cc6)sc6cc(O)ccc56)cc4)cc3C2=O)C(=O)N1 (stereo not shown) [Compound 77]
27.8 | O=C1CCC(N2C(=O)c3ccc(OCCCOCCOCCOc4ccc(Oc5c(-c6ccc(Br)cc6)sc6cc(O)ccc56)cc4)cc3C2=O)C(=O)N1 (stereo not shown) [Compound 79]
37.4 | O=C1CCC(N2C(=O)c3ccc(OCCCOCCCOCCCOc4ccc(Oc5c(-c6ccc(Br)cc6)sc6cc(O)ccc56)cc4)cc3C2=O)C(=O)N1 (stereo not shown) [Compound 80]
8.4 | O=C1CCC(N2C(=O)c3ccc(NCCCOCCOc4ccc(Oc5c(-c6ccc(Br)cc6)sc6cc(O)ccc56)cc4)cc3C2=O)C(=O)N1 (stereo not shown) [Compound 81]
32.2 | O=C1CCC(N2C(=O)c3ccc(NCCCOCCCOc4ccc(Oc5c(-c6ccc(Br)cc6)sc6cc(O)ccc56)cc4)cc3C2=O)C(=O)N1 (stereo not shown) [Compound 82]
44.9 | O=C1CCC(N2C(=O)c3ccc(NCCCOCCOCCOc4ccc(Oc5c(-c6ccc(Br)cc6)sc6cc(O)ccc56)cc4)cc3C2=O)C(=O)N1 (stereo not shown) [Compound 83]
30.9 | O=C1CCC(N2C(=O)c3ccc(NCCCOCCCOCCCOc4ccc(Oc5c(-c6ccc(Br)cc6)sc6cc(O)ccc56)cc4)cc3C2=O)C(=O)N1 (stereo not shown) [Compound 84]
6 | O=C1CCC(N2Cc3cc(NCCCOCCOc4ccc(Oc5c(-c6ccc(Br)cc6)sc6cc(O)ccc56)cc4)ccc3C2=O)C(=O)N1 (stereo not shown) [Compound 85]
11 | O=C1CCC(N2Cc3cc(NCCOCCOCCOc4ccc(Oc5c(-c6ccc(Br)cc6)sc6cc(O)ccc56)cc4)ccc3C2=O)C(=O)N1 (stereo not shown) [Compound 86]
21.5 | O=C1CCC(N2C(=O)c3ccc(OCCCOCCCOCCOc4ccc(Oc5c(-c6ccc(Br)cc6)sc6cc(O)ccc56)cc4)cc3C2=O)C(=O)N1 (stereo not shown) [Compound 87]

Same assay, conditions: 10% FBS, 24 hours, Table 2 VHL centric PROTACs, read-out: IC50

IC50 [nM] | Structure (SMILES)
15.8 | Cc1ncsc1-c1ccc([C@H](C)NC(=O)[C@@H]2C[C@@H](O)CN2C(=O)[C@@H](NC(=O)COCCCOCCCOc2ccc(Oc3c(-c4ccc(F)cc4)sc4cc(O)ccc34)cc2)C(C)(C)C)cc1 [Compound 112, (2S,4R)-1-((S)-2-(2-(3-(3-(4-(2-(4-fluorophenyl)-6-hydroxybenzo[b]thiophen-3-yloxy)phenoxy)propoxy)propoxy)acetamido)-3,3-dimethylbutanoyl)-4-hydroxy-N—((S)-1-(4-(4-methylthiazol-5-yl)phenyl)ethyl)pyrrolidine-2-carboxamide]
23.7 | Cc1ncsc1-c1ccc([C@H](C)NC(=O)[C@@H]2C[C@@H](O)CN2C(=O)[C@@H](NC(=O)COCCOCCCOc2ccc(Oc3c(-c4ccc(F)cc4)sc4cc(O)ccc34)cc2)C(C)(C)C)cc1 [Compound 113, (2S,4R)-1-((S)-2-(2-(2-(3-(4-(2-(4-fluorophenyl)-6-hydroxybenzo[b]thiophen-3-yloxy)phenoxy)propoxy)ethoxy)acetamido)-3,3-dimethylbutanoyl)-4-hydroxy-N—((S)-1-(4-(4-methylthiazol-5-yl)phenyl)ethyl)pyrrolidine-2-carboxamide]
22 | Cc1ncsc1-c1ccc(CNC(=O)[C@@H]2C[C@@H](O)CN2C(=O)[C@@H](NC(=O)CCCC(=O)N2CCN(CCOc3ccc(Oc4c(-c5ccc(F)cc5)sc5cc(O)ccc45)cc3)CC2)C(C)(C)C)cc1 [Compound 114]
> 100 | Cc1ncsc1-c1ccc(CNC(=O)[C@@H]2C[C@@H](O)CN2C(=O)[C@@H](NC(=O)CCC(=O)N2CC3CN(CCOc4ccc(Oc5c(-c6ccc(F)cc6)sc6cc(O)ccc56)cc4)CC3C2)C(C)(C)C)cc1 (stereo partly shown) [Compound 115]
3 | Cc1ncsc1-c1ccc(CNC(=O)[C@@H]2C[C@@H](O)CN2C(=O)[C@@H](NC(=O)COCCO[C@@H]2CCN(CCOc3ccc(Oc4c(-c5ccc(F)cc5)sc5cc(O)ccc45)cc3)C2)C(C)(C)C)cc1 [Compound 116]
